Data from patent US20080139534A1, “Bisbenzamidines and bisbenzamidoximes for the treatment of human African trypanosomiasis” (XAVIER UNIVERSITY OF LOUISIANA, priority 2006, published 2008).
Read-outs that look alike come from different tables or passages of the source. Blank lines part the entries; values can stand above or below the compound they belong to.

What was measured:
calf thymus DNA = assay: Thermal denaturation study, DNA binding affinity (ΔTm); details: 1:5 compound to base pair ratio;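 further: shift in midpoint melting temperature of calf thymus DNA thermal denaturation curves caused by compound binding, values averaged over at least two determinations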
Procedure: (§1) The binding affinity was measured by determining the change in the midpoint (Tm) of the thermal denaturation curves of calf thymus DNA as well as poly(dA-dT) at a 1:5 compound to base pair ratio.

[1] = system: T. b. brucei Lab 110 EATRO; assay: In vitro trypanocidal activity, bloodforms in HMI-18 medium, Coulter counts; assay type: cell-based, Trypanosoma brucei brucei; details: Trypanosoma brucei, read-out: Lab 100 EATRO IC50
Procedure: (§2) The compounds were tested against trypanosome isolates grown as blood forms in HMI-18 medium containing 20% horse serum in 24 well microplates at 37° C. in 5% CO2. Wells were inoculated with 1×10^5 trypanosomes. […] One-half the volume was replaced daily. Cell counts were made daily with a Coulter Counter, Model Z1 (Beckman Coulter, Miami, Fla., USA). Cells were diluted with Isoton I buffer (Beckman Coulter) and the aperture was standardized at 5.14 μm. Background checks were performed daily on 1:10 dilutions of medium. Counts, normalization, and coincident counts were accounted for by the standardized Coulter analysis program. Occasionally, hemocytometer counts were performed as a check on the validity of the Coulter program. IC50 values were determined after 48 h from semi-log plots and the values are the result of duplicate determinations. Initially a broad concentration curve was used and then a close concentration curve from which IC50 values were determined. Assays were done in duplicate and each point was the average of the two. Control cells grew to 5×10^6/ml.
(§3) Coulter counts were made daily and IC50 values determined after 48 hours exposure.

poly(dA-dT) = assay: Thermal denaturation study, DNA binding affinity (ΔTm); details: 1:5 compound to base pair ratio;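 further: shift in the midpoint temperature of the thermal melting curve of poly(dA-dT), each value the mean of two or more independent determinations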
Procedure: as §1

[2] = system: T. b. rhodesiense KETRI 243; assay: In vitro trypanocidal activity, bloodforms in HMI-18 medium, Coulter counts; assay type: cell-based, Trypanosoma brucei rhodesiense; details: Trypanosoma brucei, RHODESIENSE, 48 h exposure
Procedure: as §2, §3

[3] = system: T. b. rhodesiense KETRI 2538; assay: In vivo efficacy in infected mice, clinical isolate; design: species or system Trypanosoma brucei rhodesiense
Procedure: (§4) Female Swiss-Webster mice (weight, 20 g) were infected (intraperitoneally) with 2.5×10^5 trypanosomes from rat blood, and the infection was allowed to develop for 24 h before drug treatment was begun. Groups of three mice each were injected (intraperitoneally) with each drug concentration. All of the experiments included a group of untreated controls. […] Animals were monitored weekly for parasites in tail vein blood smears. Mice were considered cured if they survived more than 30 days after the death of the last control with no parasites in tail vein blood smears. MSD (mean survival in days) was also recorded for each group. It is the average time of survival of the animals in the group, exclusive of cured animals.
(§5) Mice were infected on day 1 with 2.5×10^5 trypanosomes and the infections allowed to progress 24 h. prior to dosing. Animals were dosed 1×/day i.p for 3 days. Cured animals survived >30 days beyond the death of untreated, infected controls. MSD=mean survival in days exclusive of cured animals. Dose as mg/kg/day.

[4] = system: T. b. rhodesiense KETRI 2002; assay: as above; design: species or system Trypanosoma brucei rhodesiense
Procedure: as §4, §5

[5] = system: T. b. rhodesiense KETRI 1992; assay: as above; design: species or system Trypanosoma brucei rhodesiense
Procedure: as §4, §5

[6] = system: T. b. brucei Lab 110 EATRO; assay: In vivo efficacy in infected mice; design: species or system Trypanosoma brucei brucei; details: mice
Procedure: Female Swiss-Webster mice (weight, 20 g) were infected (intraperitoneally) with 2.5×10^5 trypanosomes from rat blood, and the infection was allowed to develop for 24 h before drug treatment was begun. Groups of three mice each were injected (intraperitoneally) with each drug concentration. All of the experiments included a group of untreated controls. […] Parasitemia of animals dying of infection averaged 0.5-1.0×10^9/mL of blood. These infections are very predictable and daily counts were not done because of the labor involved. […] Animals were monitored weekly for parasites in tail vein blood smears. Mice were considered cured if they survived more than 30 days after the death of the last control with no parasites in tail vein blood smears. MSD (mean survival in days) was also recorded for each group. It is the average time of survival of the animals in the group, exclusive of cured animals.
Mice were infected with 250,000 parasites and dosing commenced 24 h. post infection. Mice were separated into groups of three and given single i.p doses for 3 days unless otherwise noted. Infected untreated controls were used for each experiment. Mice were considered cured if surviving more than 30 days beyond death of controls without parasites in tail vein blood smears. MSD, mean survival in days, exclusive of cured animals.

[7] = KETRI 1992, 5 mg/kg/day i.p. for 3 days
[8] = KETRI 1992, 10 mg/kg/day i.p. for 3 days
[9] = KETRI 1992, 15 mg/kg/day i.p. for 3 days
[10] = 25 mg/kg i.p., single dose (1x)

Structure (SMILES): NNC(=O)c1ccc(N2CCN(c3ccc(C(=O)NN)cc3)CC2)cc1 [compound 0117, 4,4′-(1,4-Piperazinediyl)bisbenzenecarboxhydrazide]
DNA Binding Δ Tm Calf thymus (calf thymus DNA): 0.1 °C
melting point: > 300 °C
IC50 ([1]; 48 h): 240 nM
DNA Binding Δ Tm Poly (dA-dT) (poly(dA-dT)): 0.0 °C

Structure (SMILES): N=C(N)c1ccc(NC(=O)CCCCC(=O)Nc2ccc(C(=N)N)cc2)cc1 [compound 0702]
DNA Binding Δ Tm Calf thymus (calf thymus DNA): 8.7 °C
IC50 [2]: 2.45 nM
IC50 ([1]; 48 h exposure, bloodforms): 2.8 nM
DNA Binding Δ Tm Poly (dA-dT) (poly(dA-dT)): 14.4 °C
MSD ([3]; KETRI 2538, 5 mg/kg/day i.p. for 3 days): >30 days
MSD ([3]; KETRI 2538, 10 mg/kg/day i.p. for 3 days): >30 days
MSD ([3]; KETRI 2538, 15 mg/kg/day i.p. for 3 days): >30 days
MSD ([4]; KETRI 2002, 10 mg/kg/day i.p. for 3 days): >30 days
MSD ([4]; KETRI 2002, 15 mg/kg/day i.p. for 3 days): >30 days
MSD ([4]; KETRI 2002, 25 mg/kg/day i.p. for 3 days): >30 days
#Cured/Total [5, 7]: 0/3
MSD [5, 7]: 16.5 days
#Cured/Total [5, 8]: 0/3
MSD [5, 8]: 17.5 days
#Cured/Total [5, 9]: 0/3
MSD [5, 9]: 22 days
# Cured/#Treated (%) ([6]; 1 mg/kg/day i.p. for 3 days): 0/3
MSD ([6]; 1 mg/kg/day i.p. for 3 days): 6.7 days
MSD ([6]; 5 mg/kg/day i.p. for 3 days): >30 days
MSD ([6]; 10 mg/kg/day i.p. for 3 days): >30 days
MSD ([6]; 15 mg/kg/day i.p. for 3 days): >30 days
# Cured/#Treated (%) [6, 10]: 0/3
MSD [6, 10]: 22 days
MSD ([6]; 25 mg/kg/day i.p., 2 doses (2x)): >30 days

Other lines, results leading:

melting point: 168 to 170 °C
Structure (SMILES): C=CCCc1nc(-c2ccc(NC(=O)CCCC(=O)Nc3ccc(-c4noc(CCC=C)n4)cc3)cc2)no1 [TH745, N,N′-Bis[4-(5-3,4-Butene-1,2,4-oxadiazol-3yl)phenyl]pentanediamide]

melting point: 253 to 255 °C
Structure (SMILES): N/C(=N\OC(=O)c1ccccc1)c1ccc(NC(=O)CCCC(=O)Nc2ccc(/C(N)=N/OC(=O)c3ccccc3)cc2)cc1 [TH746, N,N′-Bis[4-(N-Phenylcarbonyloxyamidino)phenyl]pentanediamide]

melting point: 255 to 257 °C
Structure (SMILES): O=C(CCCC(=O)Nc1ccc(-c2noc(-c3ccccc3)n2)cc1)Nc1ccc(-c2noc(-c3ccccc3)n2)cc1 [TH747, N,N′-Bis[4-(5-Phenyl-1,2,4-oxadiazol-3yl)phenyl]pentanediamide]
